The text below walks through data of ChEMBL document CHEMBL4038345, “Design, Synthesis, and Biological Evaluation of Novel Selenium-Containing Isocombretastatins and Phenstatins as Antitumor Agents” (J Med Chem, 2017).

One may read the IC50 as the concentration that gives 50% inhibition. A high value points to lower potency. In general, half-life refers to how long it takes for the measured level to halve. Lower therefore signals fast loss.

Data set [1] has as its system A549. In words: Induction of apoptosis in human A549 cells assessed as live cells at 5 nM for 24 hrs by annexin V-FITC/propidium iodide staining-based flow cytometry analysis (reference value: 99.15%). It is filed as functional. On the technique in general: In flow cytometry, cells or beads pass a laser one at a time.
The subject of data set [2] is A549. In words: Induction of apoptosis in human A549 cells assessed as necrotic cells at 5 nM for 24 hrs by annexin V-FITC/propidium iodide staining-based flow cytometry analysis (reference value: 0.03%). It is filed as functional.
A further data set relates to LoVo. In words: Antiproliferative activity against human LoVo cells after 48 hrs by MTT assay. Background: Tetrazolium dyes change colour on reduction, which living cells bring about.
A further data set has as its system A549/CDDP. Put plainly: Antiproliferative activity against human A549/CDDP cells after 48 hrs by MTT assay. It is filed as functional, cell-based.
Data set [3] deals with A549. Put plainly: Induction of apoptosis in human A549 cells assessed as necrotic cells at 1 nM for 24 hrs by annexin V-FITC/propidium iodide staining-based flow cytometry analysis (reference value: 0.03%). It is filed as functional.
The subject of data set [4] is A549. Put plainly: Induction of apoptosis in human A549 cells assessed as late apoptotic cells at 1 nM for 24 hrs by annexin V-FITC/propidium iodide staining-based flow cytometry analysis. Type of data set: functional.
Data set [5] relates to A549. In words: Induction of apoptosis in human A549 cells assessed as necrotic cells at 5 nM for 48 hrs by annexin V-FITC/propidium iodide staining-based flow cytometry analysis (reference value: 0.02%). Type of data set: functional.
Data set [6] concerns A549. In words: Induction of apoptosis in human A549 cells assessed as live cells at 5 nM for 48 hrs by annexin V-FITC/propidium iodide staining-based flow cytometry analysis (reference value: 99.01%). Type of data set: functional.
Data set [7] has as its system A549. Put plainly: Induction of apoptosis in human A549 cells assessed as necrotic cells at 10 nM for 48 hrs by annexin V-FITC/propidium iodide staining-based flow cytometry analysis (reference value: 0.02%). It is filed as functional.
The nature of data set [8]: Metabolic stability in Sprague-Dawley rat liver microsomes assessed as compound remaining after 60 mins in presence of NADPH by UV-based HPLC-MS/MS analysis. It is filed as ADME, microsome. Conditions: read-out: Stability.
A short description of data set [9]: Half life in Sprague-Dawley rat by UV-based HPLC-MS/MS analysis. It is filed as ADME. The note with it: in vivo.
A short description of data set [10]: (§1) Inhibition of porcine brain tubulin polymerization measured every 60 seconds for 90 mins by DAPI staining-based fluorescence assay. On the set-up: species or system Sus scrofa.
The next data set is filed under the species Sus scrofa. The description is as §1.
Data set [11] relates to A549. Put plainly: Disruption of mitochondrial membrane potential in human A549 cells assessed as intact mitochondrial membrane at 1 nM after 24 hrs by JC1 staining-based flow cytometry method (reference value: 99.18%). It is filed as functional.
In data set [12] the test system is A549. In words: Disruption of mitochondrial membrane potential in human A549 cells at 1 nM after 24 hrs by JC1 staining-based flow cytometry method (reference value: 0.62%). It is filed as functional.
In data set [13] the test system is A549. Put plainly: Disruption of mitochondrial membrane potential in human A549 cells assessed as intact mitochondrial membrane at 10 nM after 24 hrs by JC1 staining-based flow cytometry method (reference value: 99.18%). It is filed as functional.
Data set [14] relates to A549. Put plainly: Disruption of mitochondrial membrane potential in human A549 cells at 10 nM after 24 hrs by JC1 staining-based flow cytometry method (reference value: 0.62%). Type of data set: functional.
In data set [15] the test system is A549. In words: Induction of apoptosis in human A549 cells assessed as upregulation of Bad expression at 1 to 10 nM after 24 to 48 hrs by Western blot analysis. Type of data set: functional, cell-based.
Data set [16] deals with A549. In words: Cell cycle arrest in human A549 cells assessed as increase in accumulation of cells at G2/M phase at 1 nM after 24 hrs by propidium iodide staining-based flow cytometry method. Type of data set: functional.
For a further data set, the system named is HeLa. Put plainly: cells. Conditions: Homo sapiens, 48 h.
The next data set deals with HCT-116. Put plainly: cells. Conditions: Homo sapiens, HCT-116, 48 h.

Activity calls are given as the source filed them. No cut-off for these calls is given here.

Turning to `C=C(c1ccc(OC)c(O)c1)c1cc(OC)c(OC)c([Se]C)c1`, the Activity came to 64.43% in the data set on A549 [1]; 1.69% with A549 [2]; 0.2% in the data set with A549 [3]; 0.01% in the data set on A549 [4]; 10.45% in the data set with A549 [5]; 49.13% in the data set with A549 [6]. Further, the Activity in the data set on A549 [7] is reported as 13.55%; with A549 [11], 86.88%; in the data set with A549 [12], 12.78%; in the data set with A549 [13] it was 9.14%; in the data set with A549 [14], 90.78%; in the data set with A549 [16], 50%. Besides, the IC50 in the data set with LoVo turned out to be 9 nM; in the data set with A549/CDDP, 34.4 nM; in data set [10], 1380 nM; in the data set with HeLa it was 3 nM; in the data set on HCT-116, 12 nM. In addition, the remaining at 1 h in data set [8] was determined as 62.3%. This molecule had a half-life in data set [9] of 1.24 h. In addition, the inhibition entry in the data set filed under Sus scrofa is “Dose-dependent effect”. Also, in the data set on A549 [15], the outcome was Active.
